Results: patent US5041567A, “Antibacterial monic acid derivatives” (Beecham Group plc, priority 1982, dated 1991)
In brackets after ≈: the same amount, converted by molar mass. Where two headings read alike, the source gives them in different places.

Key:
[1] = tested on: Erysipelothrix rhusiopathiae NCTC 8163; test: MIC against veterinary bacteria in vitro; conditions: Erysipelothrix rhusiopathiae, NCTC8163, 18 h
Procedure: (§1) The activity of the compounds of the Examples against various veterinarily important bacteria, was assayed in vitro using two-fold serial dilutions in Diagnostic Sensitivity Test Agar inoculated with 10^4 organisms.

S. typhimurium S18 = test: MIC against veterinary bacteria in vitro; conditions: Salmonella enterica, TYPHIMURIUM, 18 h
Procedure: as §1

[2] = tested on: Corynebacterium pyogenes CY1; test: MIC against veterinary bacteria in vitro; conditions: CY1, 18 h
Procedure: as §1

[3] = tested on: M. suipneumoniae ATCC 25095; test: MIC against mycoplasma in vitro; format: cell-based; conditions: Mesomycoplasma hyopneumoniae, ATCC25095, 144 h
K. aerogenes A = test: MIC against human bacteria in vitro; format: cell-based; conditions: Klebsiella aerogenes; K. aerogenes A; 5% chocolated horse blood agar, 18 hours; read-out: MIC
E. coli NCTC 10418 = test: MIC against human bacteria in vitro; format: cell-based; conditions: Escherichia coli
Strep. agalactiae 2788-B = test: MIC against human bacteria in vitro; format: cell-based; conditions: Streptococcus agalactiae; Strep. agalactiae 2788-B; 5% chocolated horse blood agar, 18 hours; read-out: MIC
[4] = tested on: Strep. pyogenes R80/421-A; test: MIC against human bacteria in vitro; format: cell-based; conditions: Streptococcus pyogenes; Strep. pyogenes R80/421-A; 5% chocolated horse blood agar, 18 hours; read-out: MIC
M. suipneumoniae Str. 11 = test: MIC against mycoplasma in vitro; format: cell-based; conditions: Mesomycoplasma hyopneumoniae
Strep. uberis SPU1 = test: MIC against veterinary bacteria in vitro; conditions: Streptococcus uberis, SPU1, 18 h
Procedure: as §1

[5] = tested on: Haemophilus influenzae Wy21; test: MIC against human bacteria in vitro; format: cell-based; conditions: Haemophilus influenzae Wy21; 5% chocolated horse blood agar, 18 hours; read-out: MIC
S. dublin S7 = test: MIC against veterinary bacteria in vitro; conditions: Salmonella enterica, S7, 18 h
Procedure: as §1

M. suipneumoniae NB12 = test: MIC against mycoplasma in vitro; format: cell-based; conditions: Mesomycoplasma hyopneumoniae
[6] = tested on: Neisseria catarrhalis 1502; test: MIC against human bacteria in vitro; format: cell-based; conditions: Neisseria catarrhalis 1502; 5% chocolated horse blood agar, 18 hours; read-out: MIC
Past. multocida PA2 = test: MIC against veterinary bacteria in vitro; conditions: Pasteurella multocida, PA2, 18 h
Procedure: as §1

Staph. aureus Russell = test: MIC against human bacteria in vitro; format: cell-based; conditions: Staphylococcus aureus; Staph. aureus Russell; 5% chocolated horse blood agar, 18 hours; read-out: MIC
M. hyorhinis ATCC 23234 = test: MIC against mycoplasma in vitro; format: cell-based; conditions: Mesomycoplasma hyorhinis, ATCC23234, 144 h
Sarcina lutea 8340 = test: MIC against human bacteria in vitro; format: cell-based; conditions: Micrococcus luteus; Sarcina lutea 8340; 5% chocolated horse blood agar, 18 hours; read-out: MIC
M. suipneumoniae TAM 6N = test: MIC against mycoplasma in vitro; format: cell-based; conditions: Mesomycoplasma hyopneumoniae, TAM6N, 144 h; M. suipneumoniae TAM 6N; 6 days, 37° C.; read-out: MIC
M. suipneumoniae HK(2) = test: MIC against mycoplasma in vitro; format: cell-based; conditions: Mesomycoplasma hyopneumoniae, 144 h
Staph. aureus W2827 = test: MIC against human bacteria in vitro; format: cell-based; conditions: Staphylococcus aureus; Staph. aureus W2827; 5% chocolated horse blood agar, 18 hours; read-out: MIC
[7] = tested on: M. bovigenitalium ATCC 14173; test: MIC against mycoplasma in vitro; format: cell-based; conditions: 144 h
Strep. dysgalactiae SPD1 = test: MIC against veterinary bacteria in vitro; conditions: Streptococcus dysgalactiae, SPD1, 18 h
Procedure: as §1

[8] = tested on: Ps. aeruginosa NCTC 10662; test: MIC against human bacteria in vitro; format: cell-based; conditions: Pseudomonas aeruginosa, NCTC10662; Ps. aeruginosa NCTC 10662; 5% chocolated horse blood agar, 18 hours; read-out: MIC
M. suipneumoniae LABER = test: MIC against mycoplasma in vitro; format: cell-based; conditions: Mesomycoplasma hyopneumoniae, 144 h
Strep. faecalis I = test: MIC against human bacteria in vitro; format: cell-based; conditions: Enterococcus faecalis; Strep. faecalis I; 5% chocolated horse blood agar, 18 hours; read-out: MIC
M. hyorhinis ATCC 25021 = test: MIC against mycoplasma in vitro; format: cell-based; conditions: Mesomycoplasma hyorhinis, ATCC25021, 144 h
Staph. aureus Oxford = test: MIC against veterinary bacteria in vitro; conditions: Staphylococcus aureus, 18 h
Procedure: as §1

Strep. pneumoniae CN33 = test: MIC against human bacteria in vitro; format: cell-based; conditions: Streptococcus pneumoniae
[9] = tested on: Corynebacterium xerosis 9755; test: MIC against human bacteria in vitro; format: cell-based; conditions: Corynebacterium xerosis 9755; 5% chocolated horse blood agar, 18 hours; read-out: MIC
E. coli ESS = test: MIC against human bacteria in vitro; format: cell-based; conditions: Escherichia coli
M. suipneumoniae MS 16 = test: MIC against mycoplasma in vitro; format: cell-based; conditions: Mesomycoplasma hyopneumoniae, MS16, 144 h
Bacillus subtilis 6633 = test: MIC against human bacteria in vitro; format: cell-based; conditions: Bacillus subtilis 6633; 5% chocolated horse blood agar, 18 hours; read-out: MIC
[10] = tested on: Staph. aureus 152 (pen. sens); test: MIC against veterinary bacteria in vitro; conditions: Staphylococcus aureus, 18 h
Procedure: as §1

| Compound | MIC [1] | MIC (S. typhimurium S18) | MIC [2] | MIC (K. aerogenes A) | MIC (Strep. agalactiae 2788-B) | MIC (Strep. uberis SPU1) | MIC [5] | MIC (S. dublin S7) | MIC [6] | MIC (Past. multocida PA2) | MIC (Staph. aureus Russell) | MIC (Sarcina lutea 8340) | MIC (M. suipneumoniae TAM 6N) | MIC (Staph. aureus W2827) | MIC (Strep. dysgalactiae SPD1) | MIC [8] | MIC (Strep. faecalis I) | MIC (Staph. aureus Oxford) | MIC [9] | MIC (Bacillus subtilis 6633) | further results |
| --- | --- | --- | --- | --- | --- | --- | --- | --- | --- | --- | --- | --- | --- | --- | --- | --- | --- | --- | --- | --- | --- |
| C/C(=C\c1ncc(-c2cccc([N+](=O)[O-])c2)o1)C[C@@H]1OC[C@H](C[C@@H]2O[C@H]2[C@@H](C)[C@H](C)O)[C@@H](O)[C@H]1O [Example 6, 5-m-nitrophenyl-2-(1-normon-2-yl)oxazole A] | > 80 µg/mL | > 80 µg/mL | > 80 µg/mL | > 128 µg/mL | 4 µg/mL (≈ 8.19 µM) | 0.07 µg/mL (≈ 0.143 µM) | 2 µg/mL (≈ 4.09 µM) | > 80 µg/mL | 4 µg/mL (≈ 8.19 µM) | 1.25 µg/mL (≈ 2.56 µM) | 16 µg/mL (≈ 32.8 µM) | > 128 µg/mL | 0.1 µg/mL (≈ 0.205 µM) | 16 µg/mL (≈ 32.8 µM) | 0.625 µg/mL (≈ 1.28 µM) | > 128 µg/mL | > 128 µg/mL | 1.25 µg/mL (≈ 2.56 µM) | > 128 µg/mL | 2 µg/mL (≈ 4.09 µM) | MIC [3]: 0.05 µg/mL (≈ 0.102 µM); MIC (E. coli NCTC 10418; NCTC10418, E. coli NCTC 10418, agar with 5% chocolated horse blood, 18 hours, 37° C., read-out: MIC): > 128 µg/mL; MIC [4]: 4 µg/mL (≈ 8.19 µM); MIC (M. suipneumoniae Str. 11; STR.11, 144 h): 0.05 µg/mL (≈ 0.102 µM); MIC (M. suipneumoniae NB12; NB12, 144 h): 0.05 µg/mL (≈ 0.102 µM); MIC (M. hyorhinis ATCC 23234): 0.025 µg/mL (≈ 0.0512 µM); MIC (M. suipneumoniae HK(2)): 0.05 µg/mL (≈ 0.102 µM); MIC [7]: 0.05 µg/mL (≈ 0.102 µM); MIC (M. suipneumoniae LABER): 0.05 µg/mL (≈ 0.102 µM); MIC (M. hyorhinis ATCC 25021): 0.025 µg/mL (≈ 0.0512 µM); MIC (Strep. pneumoniae CN33; Strep. pneumoniae CN33, 5% chocolated horse blood agar, 18 hours, read-out: MIC): 4 µg/mL (≈ 8.19 µM); MIC (E. coli ESS; E. coli ESS, 5% chocolated horse blood agar, 18 hours, read-out: MIC): 16 µg/mL (≈ 32.8 µM); MIC (M. suipneumoniae MS 16): 0.025 µg/mL (≈ 0.0512 µM) |
| C/C(=C\c1nc(C)c(-c2ccccc2)o1)C[C@@H]1OC[C@H](C[C@@H]2O[C@H]2[C@@H](C)[C@H](C)O)[C@@H](O)[C@H]1O [Example 40, 4-Methyl-2-(1-normon-2-yl)-5-phenyloxazole A] | > 80 µg/mL | > 80 µg/mL | 80 µg/mL (≈ 175 µM) | > 100 µg/mL | > 100 µg/mL | 40 µg/mL (≈ 87.4 µM) | 50 µg/mL (≈ 109 µM) | > 80 µg/mL | 50 µg/mL (≈ 109 µM) | 80 µg/mL (≈ 175 µM) | 100 µg/mL (≈ 219 µM) | > 100 µg/mL | > 10 µg/mL | > 100 µg/mL | > 80 µg/mL | > 100 µg/mL | > 100 µg/mL | 80 µg/mL (≈ 175 µM) | > 100 µg/mL | 100 µg/mL (≈ 219 µM) | MIC [10]: 80 µg/mL (≈ 175 µM); MIC ([3]; M. suipneumoniae ATCC 25095, 6 days, 37° C., read-out: MIC): > 10 µg/mL; MIC (E. coli NCTC 10418; NCTC10418, 18 h): > 100 µg/mL; MIC (M. suipneumoniae Str. 11; 144 h, M. suipneumoniae Str. 11, 6 days, 37° C., read-out: MIC): > 10 µg/mL; MIC (M. suipneumoniae NB12; 144 h, M. suipneumoniae NB12, Friis broth, 0.9% agarose, 6 days, 37° C., read-out: MIC): > 10 µg/mL; MIC (M. hyorhinis ATCC 23234; M. hyorhinis ATCC 23234, 6 days, 37° C., read-out: MIC): > 10 µg/mL; MIC (M. suipneumoniae HK(2); M. suipneumoniae HK(2), 6 days, 37° C., read-out: MIC): > 10 µg/mL; MIC ([7]; M. bovigenitalium ATCC 14173, 6 days, 37° C., read-out: MIC): 10 µg/mL (≈ 21.9 µM); MIC (M. suipneumoniae LABER; M. suipneumoniae LABER, 6 days, 37° C., read-out: MIC): > 10 µg/mL; MIC (M. hyorhinis ATCC 25021; M. hyorhinis ATCC 25021, 6 days, 37° C., read-out: MIC): > 10 µg/mL; MIC (Strep. pneumoniae CN33; CN33, 18 h): > 100 µg/mL; MIC (E. coli ESS; 18 h): 100 µg/mL (≈ 219 µM); MIC (M. suipneumoniae MS 16; M. suipneumoniae MS 16, 6 days, 37° C., read-out: MIC): > 10 µg/mL |
